Laboratory results as given in patent US20060189539A1, “Novel GnRH analogues with antitumour effects and pharmaceutical compositions thereof” (priority 1994, published 2006).
Non-standard residues stand in square brackets, D forms with d. Residues, ends and D or L forms follow the SMILES beside them. Groups on a side chain read outwards from the residue. *: point of attachment. dPhe(4-Cl) = N[C@H](Cc1ccc(Cl)cc1)C(=O)O; NEt2 = CCN(CC)*

What was measured:
MXT mouse mammary tumour = experiment: In vivo antitumour effect on MXT mouse mammary tumour; design: species or system CBA/Ca mice
Protocol: The MXT mouse mammary carcinoma contains ER and PgR proteins; furthermore, it contains also GnRH receptors; therefore, this in vivo tumor model is suitable for studying both the direct and indirect effects. The treatment of mice bearing MXT mammary tumour was commenced on the day following transplantation. […] The animals were daily treated in s.c. route starting from the day following transplantation of MXT mouse mammary tumour. […] MI-1544: 75 μg/day/animal; MI-1892: 75 μg/day/animal.

MCF-7 xenograft = experiment: In vivo antitumour effect on MCF-7 xenograft; design: species or system immunosuppressed CBA/Ca mice; details: 2 × 25 μg
Protocol: The immunosuppression of mice was carried out by using the method of Steel et al. (1978).
CBA/Ca female mice of about 6 weeks old were thymectomized and then, after one week, they were irradiated with 60Co (whole body irradiation; the lethal dose is 9.5 Gray). Within 24 hours 3 to 5×10^5 myelocytes were injected to the animals. Beneath the skin of the immunosuppressed mice 2×10^7 tumour cells or, in the case of later passages, about 2 mm^3 of tumour cells or in the case of later, additional passages about 2 mm^3 of tumour pieces were implanted. […] The treatment with steroid hormone was stopped by at least one week before beginning the investigation.
In the case of MCF-7 tumours (xenografts) the examinations were carried out with passages being in the phase of the 37th and 38th, respectively, transplantations.
In the case of mice bearing MCF-7 xenograft, the treatment was begun in the 4th week following xeno-transplantation.
Recent investigations have begun on 28 animals bearing MCF-7 xenograft .and on 28 animals bearing MDA-MB-231 xenograft. On animals bearing MCF-7 tumour the treatment was commenced in the 5th week following xeno-transplantation; the tumour volume was 205 to 225 mm^3. On animals bearing MDA-MB-231 tumour, the treatment was started in the 4th week after xeno-transplantation with a tumour volume of 140 to 150 mm^3. […] The control groups were daily treated with physiological saline s.c. (Each treated group consisted of 7 animals.)

T-lymphocytes = experiment: Cellular immune response (rosette formation against BRBC antigen); assay type: in vivo, mice
From the text: The immunosuppressive side effect of cytostatics used in tumour therapy is commonly known. This effect can be compensated to a certain grade by various immunostimulants (endotoxin, levamisole). Polypeptides with much […] molecular weights (about 40,000 to 80,000) are also capable of protecting against immunosuppressive effect [Gal et al.: J. Biol. Resp. Modif. 5, 148-159 (1986)). The molecular weight of the novel polyanionic P-GFLG-OH macromolecule tested by us is about 10,000, that of MI-1892 is about 2000, i.e. relatively low; therefore, their immunostimulatory activity was unexpected.

B-lymphocytes = experiment: Humoral immune response (antibody production of B-lymphocytes); assay type: in vivo, mice; details: for Increase of the humoral immune response: mice
[1] = tested on: PC3 human prostate carcinoma cell line; experiment: Inhibition of colony formation (dose-survival), Example 18; assay type: cell-based; details: 30 μM
From the text: (§1) Human cell lines used in in vitro experiments. MCF-7 human mammary tumour cell line was stabilized in 1973 by Soule et al. from the pleural fluid of mammary carcinoma patients. The cells grow in monolayer and are epithelial in their character. MDA-MB-231 human mammary carcinoma cell line was isolated and stabilized in 1974 by Cailleau et al. similarly from pleural fluid. These cells also grow in monolayer. PC3 human prostate carcinoma cell line was stabilized 20 in 1979 in cell culture by Kaighn et al.; the cells are of simple epithelium type and form compact colonies in clonogenic assays. Ishikawa cell line originated from adenocarcinoma of human endometrium [Nishida et al.: Obstet. Gynecol. Jpn, 37, 25 1103-1111 (1985)], has epithelial character and contains steroid as well as GnRH receptors. Human tumour cell lines are maintained in plastic flasks (Greiner) in Dulbecco-6modified Eagle-MEM (DMEM GIBCO) nutritive medium. The medium used herein contained 10% of fetal calf serum (FCS).
(§2) In the case of cytostatics the cell-damaging effect is not cell-specific. […] One part of the arrested cells again go into the cycle, the other part may perish (apoptosis). […] The investigations were carried out on MCF-7 and MDA-MB-231 human mammary carcinoma cell lines, PC3 human prostate 15 carcinoma cell line and Ishikawa human endometrium carcinoma cell line. Threehundred cells were set into Petri dishes of 3.5 cm in diameter each. The treatment was carried out once, 24 hours following the explantation, then the colonies formed were counted after 9 to 12 days.

[2] = tested on: MDA-MB-231 human mammary carcinoma cell line; experiment: as above; assay type: cell-based; details: 50 μM
From the text: as §1, §2

[3] = tested on: MCF-7 human mammary carcinoma cell line; experiment: as above; assay type: cell-based; details: 50 μM
From the text: as §1, §2

[4] = tested on: Ishikawa human endometrium carcinoma cell line; experiment: as above; assay type: cell-based; details: 50 μM
From the text: as §1, §2

`CC(=O)N[C@H](Cc1c[nH]c2ccccc12)C(=O)N[C@H](Cc1ccc(Cl)cc1)C(=O)N[C@H](Cc1c[nH]c2ccccc12)C(=O)N[C@@H](CO)C(=O)N[C@@H](Cc1ccc(O)cc1)C(=O)N[C@H](CCCCN)C(=O)N[C@@H](CC(C)C)C(=O)N[C@@H](CCCNC(=N)N)C(=O)N1CCC[C@H]1C(=O)N[C@H](C)C(N)=O` [MI-1544, Ac-D-Trp^1,3,D-Cpa^2,D-Lys^6, D-Ala^10-hGnRH] (Ac-[dW][dPhe(4-Cl)][dW]SY[dK]LRP[dA]-NH2) was tested, and the “Tumour volume as control (%)” value (MXT mouse mammary tumour; 75 μg/day/animal s.c., day 20) was 54%, the Inhibition % (MXT mouse mammary tumour; 1 × 75 μg daily s.c.) was 46% and the “Tumour volume as control (%)” value (MXT mouse mammary tumour; 1 × 75 μg daily s.c., Treatment weeks: 20) was 54%.

`CCN(CC)C(=O)[C@H](CC(=O)N[C@@H](CC(C)C)C(=O)N[C@@H](CCC(N)=O)C(=O)N1CCC[C@H]1C(=O)N[C@H](C)C(N)=O)NC(=O)[C@H](CCCCN)NC(=O)[C@H](CO)NC(=O)[C@@H](Cc1c[nH]c2ccccc12)NC(=O)[C@@H](Cc1ccc(Cl)cc1)NC(=O)[C@@H](Cc1c[nH]c2ccccc12)NC(C)=O` [MI-1892, Ac-D-Trp^1,3,D-Cpa^2,Lys^5,[β-Asp(DEA)]^6,D-Ala^10-hGnRH, reference compound] (Ac-[dW][dPhe(4-Cl)][dW]SKD([Leu-Gln-Pro-dA-NH2])-NEt2) was tested, and the Inhibition % (MCF-7 xenograft; week 4) was 22.5%, the Inhibition % (MCF-7 xenograft; week 6) was 21% and the “Increase of the cellular immune response” value (T-lymphocytes; 100 μg/mouse) was “nearly twofold”. The “Effect on the cellular immune response (activity of T-lymphocytes against BRBC antigen)” value (T-lymphocytes; dose not stated) was “increased”, the “Effect on the humoral immune response” value (B-lymphocytes; dose not stated) was “strengthened” and the “Increase of the humoral immune response” value (B-lymphocytes; 50 μg/mouse) was “more than twofold”. For the same compound, the “Increase of the humoral immune response” value (B-lymphocytes; 100 μg/mouse) was “threefold”.

In the case of “{Lys[n-poly(N-vinylpyrrolidone-co-maleic acid)-Gly-Phe-Leu-Gly-]}4,-GnRH-III [P-GFLG-Lys4-GnRH-III]”, the “% Inhibition of colony formation” value [1] is reported as 94%, the “% Inhibition of colony formation” value [2] is reported as 75% and the “% Inhibition of colony formation” value [3] is reported as 68%. For the same compound, the “% Inhibition of colony formation” value [4] was 25%.
